Earlier results in patent US7517878B2, “Heteroarylaminopyrazole derivatives useful for the treatment of diabetes” (Bayer Pharamceuticals Corporation, priority 2004, dated 2009).

Test system: INS-1 cells
Settings: INS-1 cells maintained in the presence of beta-mercaptoethanol; Hohmeier, et al., Diabetes 49:424, 2002; read-out: EC50 of insulin secretion in response to glucose

Compound: O=C[C@H](O)[C@@H](O)[C@H](O)[C@H](O)CO [glucose]
- EC50: 6 mM
